Several values for one entry are separate records, joined by “and”; a condition that tells them apart may be missing. Equal entries are not always repeated. Structures can show the parent of a compound that is named as a salt. Where two headings read alike, the source gives them in different places. A value given as a limit tells only on which side of the number the result lay.

The target of one data set is MCL-1 (Homo sapiens, UniProt Q07820, K194A/K197A/R201A). Nature of the data set: Protein-protein interaction assay MCL-1/Noxa BH3 peptide, TR-FRET (MCL-1 assay, Assay 1). The conditions noted are these: MCL-1 Assay [M] (median), MBP-MCL-1 / Noxa BH3 peptide. The class given is binding. An outline of the steps:
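Human MBP-fused MCL-1 (aa 173-321; 1 nM final) was pre-incubated 10 min at 22 °C with compound in pH 7 Tris buffer containing NaCl, KF, Tween-20, DTT and BGG. Displacement of biotinylated Noxa BH3 peptide was read by TR-FRET (anti-MBP-Eu cryptate/streptavidin-XL665) after 1 h at 22 °C plus overnight at 4 °C. IC50 came from four-parameter fits against DMSO controls.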

For data set [1], the system named is SUDHL5. Nature of the data set: Induction of caspase-3/7 activity in SUDHL5 cells (Assay 4). Format: cell-based. In a few lines:
(§1)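 DLBCL lines SUDHL5 and SUDHL10 were treated with compound for 3 h at 37 °C. Caspase-3/7 activity was then read by Caspase-Glo 3/7 luminescence after 1 h at 37 °C. Medium-only background was subtracted and values were normalized to the mean of DMSO-treated cells.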

The test system of data set [2] is SUDHL10. Nature of the data set: Induction of caspase-3/7 activity in SUDHL10 cells (Assay 4). Format: cell-based. In a few lines:
as §1

Data set [3] has as its system SUDHL5. Nature of the data set: Induction of cytotoxicity in SUDHL5 cells, CellTiter-Glo (Assay 6). The class given is cell-based. The conditions noted are these: SUDHL5, 5 hours incubation, median, read-out: Cytotox SUDHL5 [M] (median). In a few lines: (§2)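 Overnight seeding at 37 °C, 5 h treatment, CellTiter-Glo added, 15 min shake at RT, luminescence read. Medium without cells as control.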
In general terms: Cellular ATP, detected with luciferase, serves as a proxy for viable cell number.

Data set [4] concerns SUDHL10. Briefly: Induction of cytotoxicity in SUDHL10 cells, CellTiter-Glo (Assay 6). Format: cell-based. Conditions: SUDHL10, 5 hours incubation, median, read-out: Cytotox SUDHL10 [M] (median). In a few lines:
as §2

The test system of data set [5] is SUDHL5. Briefly: Anti-proliferative effect in SUDHL5 cells, CellTiter-Glo (Assay 7). The class given is cell-based. An outline of the steps: (§3)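 Proliferation is measured as luminescence from CellTiter-Glo after cells grow with compound for 72 h in a humidified 37 °C incubator. A reference plate read at time zero supplies the day 0 baseline, and DMSO wells serve as control for IC50 calculation.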

A further data set has as its system MV-4-11. Briefly: Anti-proliferative effect in MV-4-11 cells, CellTiter-Glo (Assay 7). Format: cell-based. In a few lines: as §3
The next data set concerns AMO-1. Nature of the data set: Anti-proliferative effect in AMO-1 cells, CellTiter-Glo (Assay 7). Format: cell-based. How it is done: Assessment of the Anti-Proliferative Effect of Compounds in Different Cell Lines
The impact of compounds on the proliferation of different cell lines was assessed using the CellTiter-Glo® Luminescent Cell Viability reagent from Promega (G7573).
In parallel, cells were plated in a reference (day 0) plate for time zero determination. Cells were incubated in a humidified incubator at 37° C. overnight.
Rim wells were excluded. The cells were incubated for 72 hours in a humidified incubator at 37° C. The day 0 plate was measured by adding 30 μL/well of CTG solution (CellTiter-Glo® Luminescent Cell Viability reagent, Promega G7573) to time zero wells in the reference plate followed by a 10 minutes incubation and luminescence reading at 0.1 ms. using the PHERAstar FS microplate reader (BMG Labtech).
After 72 hours incubation, the treated plates were measured in the same way as the day 0 plate mentioned above. The Bella DRC Master Sheet was used to calculate IC50s, with CI=day 0 values and C0=DMSO control values.

The next data set has as its system A2780. Nature of the data set: Anti-proliferative effect in A2780 cells, CellTiter-Glo (Assay 7). The class given is cell-based. In a few lines:
as §3

Where [6] appears, read: read-out: Caspase SUDHL5 [M] (median), SUDHL5, 3 hours treatment, Caspase-Glo 3/7.
Where [7] appears, read: read-out: Caspase SUDHL10 [M] (median), SUDHL10, 3 hours treatment, Caspase-Glo 3/7.
The mark [8] stands for this setting: read-out: Antiproli SUDHL5 [M] (median), SUDHL5, 72 hours incubation, CellTiter-Glo.
Setting [9] is: read-out: Antiproli MV-4-11; MV-4-11, 72 hours incubation, CellTiter-Glo; several values per example.
Where [10] appears, read: read-out: Antiproli AMO-1; AMO-1, 72 hours incubation, CellTiter-Glo; several values per example.
Setting [11] is: read-out: Antiproli A2780; A2780, 72 hours incubation, CellTiter-Glo; several values per example.
Where [12] appears, read: Homo sapiens, SU-DHL-5, 3 h, SUDHL5, 3 hours treatment, Caspase-Glo 3/7, median, read-out: Caspase SUDHL5 [M] (median).
Where [13] appears, read: Homo sapiens, SU-DHL10, 3 h, SUDHL10, 3 hours treatment, Caspase-Glo 3/7, median, read-out: Caspase SUDHL10 [M] (median).
Where [14] appears, read: Homo sapiens, SU-DHL-5, 72 h, SUDHL5, 72 hours incubation, CellTiter-Glo, median, read-out: Antiproli SUDHL5 [M] (median).
[15] abbreviates: Homo sapiens, MV4-11, 72 h, MV-4-11, 72 hours incubation, CellTiter-Glo; several values per example; read-out: Antiproli MV-4-11.
The mark [16] stands for this setting: Homo sapiens, AMO1, 72 h, AMO-1, 72 hours incubation, CellTiter-Glo; several values per example; read-out: Antiproli AMO-1.
Setting [17] is: Homo sapiens, A2780, 72 h, A2780, 72 hours incubation, CellTiter-Glo; several values per example; read-out: Antiproli A2780.
[18] abbreviates: MV-4-11, 72 hours incubation, CellTiter-Glo; several values per example; read-out: Antiproli MV-4-11.
The mark [19] stands for this setting: AMO-1, 72 hours incubation, CellTiter-Glo; several values per example; read-out: Antiproli AMO-1.
[20] abbreviates: A2780, 72 hours incubation, CellTiter-Glo; several values per example; read-out: Antiproli A2780.

Sequence of MCL-1 (Q07820 173-321 K194A/K197A/R201A, looked up): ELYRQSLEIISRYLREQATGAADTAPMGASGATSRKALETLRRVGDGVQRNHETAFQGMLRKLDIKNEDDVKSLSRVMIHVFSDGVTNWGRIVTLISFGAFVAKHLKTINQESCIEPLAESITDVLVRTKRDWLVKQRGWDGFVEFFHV

Regarding `CCc1c2c(nn1C)COCc1ccccc1Cn1c(C(=O)O)c(CCCOc3cccc4ccccc34)c3ccc(F)c-2c31` (single isomer, unassigned; enantiomer 2) [Example 72, (+)-4-Ethyl-3-fluoro-5-methyl-17-{3-[(naphthalen-1-yl)oxy]propyl}-5,7,9,14-tetrahydroindolo[7,1-fg]pyrazolo[3,4-d][2,8]benzoxazacycloundecine-16-carboxylic acid-N-ethylethanamine Salt (Enantiomer 2)], the IC50 against MCL-1 came out at 5.2e-09 M; in the data set with SUDHL5 [3], 8.5e-06 M; in the data set on SUDHL10 [4], 2.6e-05 M; in the data set with SUDHL5 [5] (setting [8]) it was 1.2e-05 M; with MV-4-11 (setting [9]) it was 9.57 µM; with AMO-1 (setting [10]), 18.9 µM. For the same compound, the IC50 in the data set with A2780 (setting [11]) turned out to be 15 µM. The figures for the EC50 in the data set on SUDHL5 [1] (setting [6]) and in the data set on SUDHL10 [2] (setting [7]) were 1.2e-05 M and more than 2.8e-05 M, respectively.

`Cc1c2c(nn1C)CN(S(=O)(=O)CCN1CCOCC1)Cc1ccccc1Cn1c(C(=O)O)c(CCCOc3cccc4ccccc34)c3cccc-2c31` (single isomer, unassigned; enantiomer 2) [Example 32, (−)-4,5-Dimethyl-8-[2-(morpholin-4-yl)ethanesulfonyl]-17-{3-[(naphthalen-1-yl)oxy]propyl}-7,8,9,14-tetrahydro-5H-indolo[1,7-bc]pyrazolo[4,3-e][2,8]benzodiazacycloundecine-16-carboxylic acid-N-ethylethanamine Salt (Enantiomer 2)]: the IC50 at MCL-1 is 1.8e-07 M; in the data set with SUDHL5 [3], more than 3.3e-05 M; in the data set on SUDHL10 [4], more than 3.3e-05 M; in the data set with SUDHL5 [5] (setting [8]), 4.5e-06 M; with MV-4-11 (setting [9]), 8.42 µM; in the data set with AMO-1 (setting [10]), 13.5 µM. Also, the IC50 in the data set with A2780 (setting [11]) was 10.8 µM. Besides, the EC50 in the data set with SUDHL5 [1] (setting [6]) and in the data set on SUDHL10 [2] (setting [7]) was more than 3.3e-05 M in each case.

In the case of `CCc1nn(C)c2c1-c1c(Cl)ccc3c(CCCOc4cccc5cc(F)ccc45)c(C(=O)O)n(c13)Cc1ccccc1COC2` (racemic) [Example 57, (rac)-3-Chloro-4-ethyl-17-{3-[(6-fluoronaphthalen-1-yl)oxy]propyl}-6-methyl-6,7,9,14-tetrahydro-indolo[7,1-fg]pyrazolo[3,4-d][2,8]benzoxazacycloundecine-16-carboxylic Acid], the IC50 against MCL-1 was 2.7e-09 M; in the data set with SUDHL10 [4] (Homo sapiens, SU-DHL10, 5 h) it was 4.6e-06 M; in the data set on SUDHL5 [5] (setting [14]), 2.4e-06 M; in the data set with MV-4-11 (setting [15]) it was 2.19 µM; in the data set on AMO-1 (setting [16]), 2.65 µM; with A2780 (setting [17]), 7.02 µM. Besides, the figures for the EC50 in the data set with SUDHL5 [1] (setting [12]) and in the data set on SUDHL10 [2] (setting [13]) were 1.5e-06 M and 4.3e-06 M, respectively.

With `Cc1c2c(nn1C)COCc1ccccc1Cn1c(C(=O)O)c(CCCOc3cccc4cc(F)ccc34)c3ccc(F)c-2c31` (single isomer, unassigned; enantiomer 2) [Example 66, (+)-3-Fluoro-17-{3-[(6-fluoronaphthalen-1-yl)oxy]propyl}-4,5-dimethyl-5,7,9,14-tetrahydroindolo[7,1-fg]pyrazolo[3,4-d][2,8]benzoxazacycloundecine-16-carboxylic acid-N-ethylethanamine Salt (Enantiomer 2)], the IC50 was 6.2e-09 M at MCL-1; 4.1e-06 M in the data set on SUDHL5 [3]; 8.6e-06 M in the data set on SUDHL10 [4]; 3.6e-06 M in the data set on SUDHL5 [5] (setting [8]); 7.13 µM and 7.07 µM with AMO-1 (setting [10]); more than 33 µM with A2780 (setting [11]). Moreover, the EC50 is 3.3e-06 M with SUDHL5 [1] (setting [6]) and 1.2e-05 M in the data set on SUDHL10 [2] (setting [7]).

As for `Cc1c2c(nn1C)COCc1cccnc1Cn1c(C(=O)O)c(CCCOc3cccc4ccccc34)c3cccc-2c31` [Example 06], the IC50 in the data set on MV-4-11 (setting [18]) is 5.38 µM; with AMO-1 (setting [19]) it was 19.9 µM; with A2780 (setting [20]), 8.66 µM.

Turning to `Cc1c2c(nn1C)COCc1ccccc1Cn1c(C(=O)O)c(CCCOc3cccc4cc(F)ccc34)c3ccc(F)c-2c31` (racemic) [Example 64, (rac)-15-Fluoro-1-(3-((6-fluoronaphthalen-1-yl)oxy)propyl)-13,14-dimethyl-4,9,11,13-tetrahydrobenzo[3,4]pyrazolo[4′,3′:9,10][1,6]oxaazacycloundecino[8,7,6-hi]indole-2-carboxylic Acid], the IC50 at MCL-1 came to 1.5e-09 M; in the data set with SUDHL5 [3] (Homo sapiens, SU-DHL-5, 5 h) it was 2.2e-06 M; in the data set on SUDHL10 [4] (Homo sapiens, SU-DHL10, 5 h), 3.2e-06 M; with SUDHL5 [5] (setting [14]), 1.5e-06 M; in the data set on AMO-1 (setting [16]), 7.46 µM; with A2780 (setting [17]) it was 17.1 µM. The figures for the EC50 in the data set with SUDHL5 [1] (setting [12]) and in the data set on SUDHL10 [2] (setting [13]) were 1.7e-06 M and 6e-06 M, respectively.

As to `CCc1c2c(nn1C)COCc1ccccc1Cn1c(C(=O)O)c(CCCOc3cccc4cc(F)ccc34)c3ccc(F)c-2c31` (single isomer, unassigned; enantiomer 2) [Example 75, (+)-4-Ethyl-3-fluoro-17-{3-[(6-fluoronaphthalen-1-yl)oxy]propyl}-5-methyl-5,7,9,14-tetrahydro-indolo[7,1-fg]pyrazolo[3,4-d][2,8]benzoxazacycloundecine-16-carboxylic acid-N-ethylethanamine Salt (Enantiomer 2)], the IC50 was found to be 3e-09 M on MCL-1; 5.2e-06 M in the data set with SUDHL5 [3]; 1e-05 M in the data set with SUDHL10 [4]; 5.8e-06 M with SUDHL5 [5] (setting [8]); 16.4 µM in the data set with MV-4-11 (setting [9]); 12.5 µM in the data set with AMO-1 (setting [10]). Also, the EC50 with SUDHL5 [1] (setting [6]) stood at 4.4e-06 M; in the data set with SUDHL10 [2] (setting [7]), 1.5e-05 M.

With `Cc1c2c(nn1C)COCc1cccnc1Cn1c(C(=O)O)c(CCCOc3cccc4ccccc34)c3cccc-2c31` [Example 05], the results for the IC50 in the data set on MV-4-11 (setting [18]), in the data set with AMO-1 (setting [19]) and in the data set on A2780 (setting [20]) were 5.48 µM, 8.78 µM and 6.65 µM, respectively.

With `CCc1nn(C)c2c1-c1c(F)ccc3c(CCCOc4cc(C)c(Cl)c(C)c4)c(C(=O)O)n(c13)Cc1ccccc1COC2` (racemic) [Example 86, (rac)-1-(3-(4-Chloro-3,5-dimethylphenoxy)propyl)-14-ethyl-15-fluoro-12-methyl-4,9,11,12-tetrahydrobenzo[3,4]pyrazolo[4′,3′:9,10][1,6]oxaazacycloundecino[8,7,6-hi]indole-2-carboxylic Acid], the IC50 on MCL-1 is 1.1e-08 M; with SUDHL5 [3] (Homo sapiens, SU-DHL-5, 5 h), 2.9e-06 M; in the data set on SUDHL10 [4] (Homo sapiens, SU-DHL10, 5 h), 5.2e-06 M; in the data set on SUDHL5 [5] (setting [14]) it was 4.3e-06 M; with MV-4-11 (setting [15]) it was 14.2 µM; in the data set on AMO-1 (setting [16]), 16.9 µM. Further, the EC50 in the data set on SUDHL5 [1] (setting [12]) was determined as 2.7e-06 M; in the data set with SUDHL10 [2] (setting [13]), 6.9e-06 M.

The values above are taken from US20210253598A1, “ARYL ANNULATED MACROCYCLIC INDOLE DERIVATIVES” (priority 2017, published 2021).
